Patent publication US20160022632A1, “COMBINATION OF CANAGLIFLOZIN AND PROBENECID FOR THE TREAMENT OF HYPERURICEMIA” (JANSSEN PHARMACEUTICA NV, priority 2013, published 2016)

Columns and labels:
[1] = cited from earlier work
[2] = 24-hour urinary uric acid excretion, open-label fixed-sequence clinical study (NCT01428284); type: in vivo, human; conditions: for Increase of mean urinary urate excretion compared to baseline: canagliflozin alone; for Urine urate excretion, Mean / Urine urate excretion, Mean Change from Day−1: healthy subjects, 24-hour urine, canagliflozin 300 mg once daily from Day 1
From the text: (§1) A single-center, open-label, fixed-sequence study to assess the effects of multiple-dose probenecid on multiple-dose of canagliflozin, in healthy subjects, was completed as described below (study NCT01428284) on clinicaltrials.gov registry website). The study consisted of 3 phases: (1) a Screening Phase of approximately 19 days (Day −21 to Day −3), (2) an Open-label Treatment Phase of 20 days (Day −2 to Day 18), and (3) a Follow-up phase (7 to 10 days after discharge on Day 18). The total duration of the study was approximately 49 days.
(§2) Subjects with history of (or current) any of the following medical conditions were excluded: (a) Acute or chronic renal insufficiency (eGFR below 90 mL/min/1.73 m^2); (b) Kidney or bladder stones (nephrolithiasis); (c) Hyperuricosuria (>800 mg/day), or gout; and/or (d) Hyperuricemia (>6.8 mg/dL, 404 μmol/L). Reasons for subject withdrawal from the study could include the following: (a) Lost to follow-up; (b) Withdrawal of consent; (c) Withdrawal of consent for pharmacogenomic research (Part 1); (d) Subject was not in compliance with requirements of the study and prohibitions and restrictions; and/or (e) A subject could be discontinued from study treatment (final assessments were to be obtained) if the investigator believed that for safety reasons (eg, adverse event) it was in the best interest of the subject to stop study treatment.
(§3) All study drugs were taken between 7:30 and 9:30 a.m. with 240 mL of noncarbonated water. Study drug was swallowed whole and not chewed, divided, dissolved or crushed. […] For each subject, on days when both canagliflozin and probenecid were administered, both doses were administered at approximately the same time.
(§4) Canagliflozin was administered as a single 300-mg tablet on Days 1 to Day 17. Probenecid was administered b.i.d. as one 500-mg tablet from Day 15 to Day 17. On Day 14 and Day 17, subjects received study drug under fasted conditions, and standardized lunch approximately 4 hours after study drug administration. On all other study days, subjects received canagliflozin and/or probenecid 1 hour before they received a standardized meal. The study diet was standardized by the site dietician in order to minimize the effect on uric acid levels. Subjects were also advised not to consume high purine-enriched foods from screening to completion of the study.
(§5) All laboratory testing was conducted by a licensed clinical laboratory (Physicians Reference Laboratory [PRL]), 7800 West 110th Street, Overland Park, Kans. 66210-2304). Clinical laboratory tests included, among others:
(b) Urinary uric acid excretion: A 24-hour total urine was collected at the time points specified in the Time and Events Schedule of the study protocol. The samples were mixed thoroughly and stored between 2° C. and 8° C. until shipment.
(§6) Laboratory data were summarized by type of laboratory test. Normal reference ranges and abnormal results were used in the summary of laboratory data. Descriptive statistics were calculated for each laboratory analyte at baseline, Day 18, and end-of-study.
Table 2, below, lists mean urine uric acid excretion and calculated mean changes through the course of the study. FIG. 2 illustrates said mean uric acid excretion (±standard deviation) as a function of study day.

[3] = Fasting serum urate levels, open-label fixed-sequence clinical study (NCT01428284); type: in vivo, human; conditions: for Decrease of mean serum urate level from baseline: canagliflozin alone; for Serum urate level, Mean / Serum urate level, Mean Decrease: healthy subjects, canagliflozin 300 mg once daily from Day 1
From the text: as §1, §2, §3, §4, §5
(a) Serum chemistry: glucose, creatinine, blood urea nitrogen (BUN), total protein, total bilirubin, phosphate, albumin, calcium, fasting serum uric acid, sodium, potassium, chloride, magnesium, lactic acid dehydrogenase, alkaline phosphatase, alanine transaminase, aspartate transaminase, gamma-glutamyltransferase, bicarbonate, creatine phosphokinase, total cholesterol (screening only), and triglycerides (screening only); and
as §6
Table 1, below lists mean serum urate levels and calculated mean decrease through the course of the study. […] FIG. 1 illustrates said mean serum urate levels (±standard deviation) as a function of study day.

SMILES: Oc1ncnc2[nH]ncc12 [Allopurinol]
- Patients with side-effects [1]: up to 20%

SMILES: Cc1ccc([C@@H]2O[C@H](CO)[C@@H](O)[C@H](O)[C@H]2O)cc1Cc1ccc(-c2ccc(F)cc2)s1 [canagliflozin]
- Increase of mean urinary urate excretion compared to baseline ([2]; Day 1): approximately 19%
- Increase of mean urinary urate excretion compared to baseline ([2]; Day 2): ~6%
- Increase of mean urinary urate excretion compared to baseline ([2]; Day 13): ~1%
- Urine urate excretion, Mean ([2]; Day 1): 5.068 mmol/day
- Urine urate excretion, Mean Change from Day−1 ([2]; Day 1): 0.796 mmol/day
- Urine urate excretion, Mean ([2]; Day 2): 4.544 mmol/day
- Urine urate excretion, Mean Change from Day−1 ([2]; Day 2): 0.273 mmol/day
- Urine urate excretion, Mean ([2]; Day 13): 4.319 mmol/day
- Urine urate excretion, Mean Change from Day−1 ([2]; Day 13): 0.048 mmol/day
- Urine urate excretion, Mean ([2]; Day 14): 4.208 mmol/day
- Urine urate excretion, Mean Change from Day−1 ([2]; Day 14): -0.064 mmol/day
- Decrease of mean serum urate level from baseline ([3]; Day 2): approximately 19%
- Decrease of mean serum urate level from baseline ([3]; Day 3): ~24%
- Decrease of mean serum urate level from baseline ([3]; Day 14): ~23%
- Serum urate level, Mean ([3]; Day 1): 293.151 µmol/L
- Serum urate level, Mean Decrease ([3]; Day 1): -5.523 µmol/L
- Serum urate level, Mean ([3]; Day 2): 241.580 µmol/L
- Serum urate level, Mean Decrease ([3]; Day 2): -57.650 µmol/L
- Serum urate level, Mean ([3]; Day 3): 228.769 µmol/L
- Serum urate level, Mean Decrease ([3]; Day 3): -70.461 µmol/L
- Serum urate level, Mean ([3]; Day 14): 229.684 µmol/L
- Serum urate level, Mean Decrease ([3]; Day 14): -69.546 µmol/L
